Consider 25 molecules from patent US20250230159A1, “FUSED HETEROCYCLIC COMPOUNDS AS MODULATORS OF RAS SIGNALLING” (Shenzhen Ionova Life Science Co., Ltd., priority 2022, published 2025).

Assay [1] concerns the target KRAS-G12C/SOS1 interaction (Homo sapiens (Human), UniProt Q07889). In words: Protein-Protein Interaction (PPI) assay, SOS1-KRAS binding assay kit (HTRF).
Another assay relates to pERK in Hela cells. In words: Phospho-ERK (p-ERK) assay in Hela cells. Type of assay: cell-based. The settings on record: Homo sapiens, β-actin normalized. Put shortly: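 Cells were treated for 1 h at 37 °C with compound in a 9-point, 3-fold series from 10 μM, then fixed and stained for pERK and β-actin. An In-Cell Western read-out normalized pERK to β-actin and to vehicle wells to give % inhibition and IC50.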

Where two headings read alike, the source gives them in different places.

KRAS-G12C/SOS1 interaction, sequence (Q07889 whole entry, stated change not applied): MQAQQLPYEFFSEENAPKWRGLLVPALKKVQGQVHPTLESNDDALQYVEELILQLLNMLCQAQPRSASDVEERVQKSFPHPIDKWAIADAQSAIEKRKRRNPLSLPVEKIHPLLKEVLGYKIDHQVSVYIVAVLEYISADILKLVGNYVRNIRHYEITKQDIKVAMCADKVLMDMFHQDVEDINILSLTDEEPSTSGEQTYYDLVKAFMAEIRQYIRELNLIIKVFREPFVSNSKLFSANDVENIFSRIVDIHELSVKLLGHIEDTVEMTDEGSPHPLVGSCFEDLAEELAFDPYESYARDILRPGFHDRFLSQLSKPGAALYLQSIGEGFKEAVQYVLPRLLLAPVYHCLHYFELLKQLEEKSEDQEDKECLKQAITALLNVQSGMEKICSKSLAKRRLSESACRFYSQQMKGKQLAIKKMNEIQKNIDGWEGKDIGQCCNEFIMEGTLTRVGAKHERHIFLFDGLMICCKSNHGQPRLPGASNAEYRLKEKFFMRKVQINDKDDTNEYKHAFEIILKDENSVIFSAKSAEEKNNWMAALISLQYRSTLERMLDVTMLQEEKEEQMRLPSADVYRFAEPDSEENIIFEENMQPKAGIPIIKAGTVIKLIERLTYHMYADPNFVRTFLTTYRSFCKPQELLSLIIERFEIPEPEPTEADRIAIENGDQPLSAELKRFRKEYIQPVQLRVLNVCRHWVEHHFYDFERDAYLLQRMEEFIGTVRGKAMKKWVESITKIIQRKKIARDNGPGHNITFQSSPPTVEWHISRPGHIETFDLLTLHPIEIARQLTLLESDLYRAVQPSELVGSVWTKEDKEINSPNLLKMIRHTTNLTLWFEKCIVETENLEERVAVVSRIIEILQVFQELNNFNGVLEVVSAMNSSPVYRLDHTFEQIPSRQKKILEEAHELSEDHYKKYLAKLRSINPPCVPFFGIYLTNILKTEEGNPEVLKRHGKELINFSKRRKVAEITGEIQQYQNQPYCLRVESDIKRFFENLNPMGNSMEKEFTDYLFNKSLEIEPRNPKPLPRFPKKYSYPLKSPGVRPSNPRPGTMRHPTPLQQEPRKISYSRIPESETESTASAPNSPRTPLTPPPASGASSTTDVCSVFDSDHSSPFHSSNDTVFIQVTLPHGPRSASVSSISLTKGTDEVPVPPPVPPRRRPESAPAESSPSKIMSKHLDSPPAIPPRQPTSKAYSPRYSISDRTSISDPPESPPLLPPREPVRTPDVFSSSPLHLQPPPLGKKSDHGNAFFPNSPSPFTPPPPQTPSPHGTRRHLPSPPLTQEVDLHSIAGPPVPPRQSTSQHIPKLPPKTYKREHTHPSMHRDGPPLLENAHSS

For the molecule `Cc1nc(N[C@H](C)c2cccc(C(F)(F)F)c2F)c2cc(C(=O)N3CC4(COC4)C3)c3ncnn3c2n1` [Example 39], the concentration for half-maximal inhibition (IC50) is less than 100 nM in assay [1] (read-out: PPI Assay IC50) and more than 100 nM in the assay on pERK in Hela cells (Table 1, 1 hour with compound).
On the same counts, the results for `C[C@@H](Nc1ncnc2c1cc(N1CCOCC1=O)c1nncn12)c1cccc(C(F)F)c1F` [Example 162] are less than 100 nM and less than 100 nM.
As to `C[C@@H](Nc1ncnc2c1cc(N1C(=O)COC[C@@H]1C)c1nncn12)c1cccc(C(F)F)c1F` [Example 168], the IC50 in assay [1] (read-out: PPI Assay IC50) was less than 100 nM; with pERK in Hela cells (Table 1, 1 hour with compound), less than 100 nM.
For `COC1(c2cc3c(N[C@H](C)c4cccc(C(F)F)c4F)nc(C)nc3n3cnnc23)CCN(C(C)=O)C1` (some centres unmarked) [Example 120], the IC50 in assay [1] (read-out: PPI Assay IC50) was less than 100 nM; in the assay with pERK in Hela cells (Table 1, 1 hour with compound), less than 100 nM.
Turning to `Cc1nc(N[C@H](C)c2cccc(C(F)F)c2F)c2cc(C3(C(F)F)CC3)c3nc(C)nn3c2n1` [Example 171], the IC50 was less than 100 nM in assay [1] (read-out: PPI Assay IC50) and less than 100 nM in the assay on pERK in Hela cells (Table 1, 1 hour with compound).
Turning to `CC(=O)N1CCC(F)(c2cc3c(N[C@H](C)c4cccc(C(F)F)c4F)nc(C)nc3n3nnnc23)CC1` [Example 116], the 50% inhibitory concentration (IC50) in assay [1] (read-out: PPI Assay IC50) is less than 100 nM; in the assay with pERK in Hela cells (Table 1, 1 hour with compound), less than 100 nM.
For `CC(=O)N1CCC(C)(c2cc3c(N[C@H](C)c4cccc(C(F)F)c4F)nc(C)nc3n3cnnc23)CC1` [Example 127, (R)-1-(4-(4-((1-(3-(difluoromethyl)-2-fluorophenyl)ethyl)amino)-2-methyl-[1,2,4]triazolo[4′,3′:1,6]pyrido[2,3-d]pyrimidin-6-yl)-4-methylpiperidin-1-yl)ethan-1-one], the IC50 in assay [1] (read-out: PPI Assay IC50) is less than 100 nM; in the assay with pERK in Hela cells (Table 1, 1 hour with compound), less than 100 nM.
Turning to `C[C@@H](Nc1ncnc2c1cc(N1CCOCC1)c1ncnn12)c1cc(N)cc(C(F)(F)F)c1` [Example 153, (R)—N-(1-(3-amino-5-(trifluoromethyl)phenyl)ethyl)-4-morpholino-[1,2,4]triazolo[1′,5′:1,6]pyrido[2,3-d]pyrimidin-6-amine], the IC50 in assay [1] (read-out: PPI Assay IC50) was less than 100 nM; in the assay with pERK in Hela cells (Table 1, 1 hour with compound) it was more than 100 nM.
The like results for `CC(=O)N1CCN(C(=O)c2cc3c(N[C@H](C)c4cccc(C(F)F)c4F)nc(C)nc3n3ncnc23)CC1` [Example 20] were, in that order, less than 100 nM and more than 100 nM.
On the same counts, the results for `Cc1nc2c(N3CCOCCC3=O)cc3c(N[C@H](C)c4cccc(C(F)F)c4F)ncnc3n2n1` [Example 158] are less than 100 nM and less than 100 nM.
The like results for `C[C@@H](Nc1ncnc2c1cc(C1(C(F)(F)F)CC1)c1nncn12)c1cccc(C(F)F)c1F` [Example 172] were, in that order, less than 100 nM and less than 100 nM.
Consider `C[C@@H](Nc1ncnc2c1cc(N1CCOC1=O)c1nncn12)c1cccc(C(F)F)c1F` [Example 167], for which the half-maximal inhibitory concentration (IC50) in assay [1] (read-out: PPI Assay IC50) was less than 100 nM; in the assay with pERK in Hela cells (Table 1, 1 hour with compound) it was less than 100 nM.
In the case of `CCOC(=O)c1cc2c(N[C@H](C)c3cc(N)cc(C(F)(F)F)c3)nc(C)nc2n2ncnc12` [Example 1, Ethyl (R)-6-((1-(3-amino-5-(trifluoromethyl)phenyl)ethyl)amino)-8-methyl-[1,2,4]triazolo[1′,5′:1,6]pyrido[2,3-d]pyrimidine-4-carboxylate], the IC50 in assay [1] is more than 100 nM; with pERK in Hela cells (Table 2, 1 hour with compound) it was more than 100 nM.
Turning to `Cc1nc(N[C@H](C)c2cccc(C(F)F)c2F)c2cc(C(=O)N3CCN(C4COC4)CC3)c3ncnn3c2n1` [Example 24], the IC50 was less than 100 nM in assay [1] (read-out: PPI Assay IC50) and more than 100 nM in the assay on pERK in Hela cells (Table 1, 1 hour with compound).
The like results for `Cc1nc(N[C@H](C)c2cccc(C(F)F)c2F)c2cc(C(=O)N3CCS(=O)(=O)CC3)c3ncnn3c2n1` [Example 18] were, in that order, less than 100 nM and more than 100 nM.
The like results for `Cc1nc(N[C@H](C)c2cccc(C(F)F)c2F)c2cc(C(=O)N3[C@@H](C)COC[C@@H]3C)c3ncnn3c2n1` [Example 13] were, in that order, less than 100 nM and less than 100 nM.
The like results for `CC(=O)N1CCC(O)(c2cc3c(N[C@H](C)c4cccc(C(F)F)c4F)nc(C)nc3n3cnnc23)C1` (some centres unmarked) [Example 109] were, in that order, less than 100 nM and more than 100 nM.
On to `Cc1nc(N[C@H](C)c2cccc(C(F)F)c2F)c2cc(C(=O)N3CC4CC(C3)O4)c3ncnn3c2n1` [Example 35], for which the half-maximal inhibitory concentration (IC50) is less than 100 nM in assay [1] (read-out: PPI Assay IC50) and more than 100 nM in the assay on pERK in Hela cells (Table 1, 1 hour with compound).
On the same counts, the results for `CC(=O)N1CCC(C)(c2cc3c(N[C@H](C)c4cccc(C(F)F)c4F)ncnc3n3nnnc23)CC1` [Example 132] are less than 100 nM and less than 100 nM.
The like results for `Cc1nc2c(N3CCOC4(CC4)C3=O)cc3c(N[C@H](C)c4cccc(C(F)F)c4F)ncnc3n2n1` [Example 156] were, in that order, less than 100 nM and less than 100 nM.
The like results for `CC(=O)N1CCC(c2cc3c(N[C@H](C)c4cccc(C(F)F)c4F)nc(C)nc3n3cnnc23)CC1` [Example 67, (R)-1-(4-(4-((1-(3-(difluoromethyl)-2-fluorophenyl)ethyl)amino)-2-methyl-[1,2,4]triazolo[4′,3′:1,6]pyrido[2,3-d]pyrimidin-6-yl)piperidin-1-yl)ethan-1-one] were, in that order, less than 100 nM and more than 100 nM.
With `Cc1nc(N[C@H](C)c2cc(N)cc(C(F)(F)F)c2)c2cc(N3CCOCC3)c3nncn3c2n1` [Example 85], the concentration for half-maximal inhibition (IC50) in assay [1] (read-out: PPI Assay IC50) was less than 100 nM; in the assay with pERK in Hela cells (Table 1, 1 hour with compound), less than 100 nM.
Regarding `Cc1nc(N[C@H](C)c2cc(N)cc(C(F)(F)F)c2)c2cc(N3CCOCC3)c3nnnn3c2n1` [Example 95], the concentration for half-maximal inhibition (IC50) in assay [1] (read-out: PPI Assay IC50) was less than 100 nM; with pERK in Hela cells (Table 1, 1 hour with compound), less than 100 nM.
`Cc1nc(N[C@H](C)c2cccc(C(F)F)c2F)c2cc(C3CCN(C(=O)N(C)C)CC3)c3nncn3c2n1` [Example 69]: the IC50 in assay [1] (read-out: PPI Assay IC50) is less than 100 nM; in the assay on pERK in Hela cells (Table 1, 1 hour with compound) it was more than 100 nM.
On the same counts, the results for `CC(=O)N1CC=C(c2cc3c(N[C@H](C)c4cccc(C(F)F)c4F)ncnc3n3nnnc23)CC1` [Example 106] are less than 100 nM and less than 100 nM.
